Active and inactive are the calls of the source.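 How the source made its calls: active means fitted half-maximal concentration for changing reporter fluorescence at or below a set limit; inactive means the rest.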
Target: Citrate synthase, peroxisomal (Saccharomyces cerevisiae (strain ATCC 204508 / S288c)) (UniProt P08679)
Assay: yeast TOR pathway CIT2-GFP reporter potency – flow cytometry, MLPCN hits, dose response (AID 2744)
Settings: S. cerevisiae CIT2-GFP strain, 3 h, at 33 µM (top of the series)

Chain of Citrate synthase, peroxisomal (Saccharomyces cerevisiae (strain ATCC 204508 / S288c)) (P08679 whole entry, looked up): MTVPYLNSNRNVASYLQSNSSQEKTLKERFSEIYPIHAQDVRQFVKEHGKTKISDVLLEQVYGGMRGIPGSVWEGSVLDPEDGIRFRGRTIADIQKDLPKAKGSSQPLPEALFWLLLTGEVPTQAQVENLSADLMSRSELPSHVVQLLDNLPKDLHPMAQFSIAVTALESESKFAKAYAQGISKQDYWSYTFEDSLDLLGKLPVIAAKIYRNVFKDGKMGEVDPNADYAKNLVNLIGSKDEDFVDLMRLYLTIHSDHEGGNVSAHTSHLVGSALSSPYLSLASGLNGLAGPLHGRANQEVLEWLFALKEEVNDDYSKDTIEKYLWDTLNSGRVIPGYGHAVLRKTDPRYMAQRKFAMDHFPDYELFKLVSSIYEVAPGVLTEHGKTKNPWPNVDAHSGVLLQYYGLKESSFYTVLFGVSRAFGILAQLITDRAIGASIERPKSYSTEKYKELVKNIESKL

| SMILES | GFP fluorescence, higher = induction |
| --- | --- |
| CC(=O)CSc1ncnc2c1cnn2-c1ccccc1 | inactive |
| O=C1C=CC(=O)N1c1ccc(OC(F)F)cc1 | inactive |
| CC(c1ccccc1)N1C(=O)/C(=C/c2ccncc2)SC1=S (stereo not drawn) | inactive |
| CCn1c(=O)c(C(=O)Nc2nc3ccccc3[nH]2)c(O)c2ccccc21 | inactive |
| O=C1C(Cl)=C(Nc2ccccc2O)C(=O)N1CCc1ccccc1 | inactive |
| Oc1ccc(Br)cc1/C=N/Nc1ccccn1 | inactive |
| COc1ccc(CCNC2=C(Cl)C(=O)N(CCc3ccccc3)C2=O)cc1OC | inactive |
| COc1ccc(N2CCN(C(=O)c3ccccc3)CC2)c([N+](=O)[O-])c1 | inactive |
| Cc1cccc(N=Nc2ccc(O)c3ncccc23)c1 | inactive |
| Cc1cccc(C(=O)NNC(=S)NC(=O)c2ccccc2)c1 | inactive |
| COc1ccc(/C=C2\C(=O)ON=C2c2ccccc2)cc1 | inactive |
| CCCCC(=O)NC(=S)NNC(=O)CCc1ccccc1 | inactive |
| O=C1CC(c2ccccc2)=NN1c1nc(-c2ccccc2)cs1 | inactive |
| O=C(C#Cc1cccc([N+](=O)[O-])c1)c1ccccc1 | inactive |
| COc1ccc(C(=O)NC(=S)NNC(=O)c2cnccn2)cc1OC | inactive |
| O=c1c2sc(-c3ccccc3)cc2nc2n1CCC2 | inactive |
| CCOC(=O)CS(=O)(=O)c1nc(-c2ccccc2)cc(C(F)(F)F)n1 | inactive |
| Cc1ccc(N/N=C(\C#N)C(N)=S)c(C)c1 | inactive |
| CCOc1ccc(NC2=C(Cl)C(=O)N(Cc3ccccc3)C2=O)cc1 | inactive |
| Cc1c(Br)c(=O)oc2c(Br)c(O)c(O)cc12 | inactive |
| Cc1ccc(-c2nn(C(C)(C)C)c3ncnc(N)c23)cc1 | inactive |
| Cc1ccc(S(=O)(=O)N2CC(C(=O)O)=CC[C@H]2c2ccc(Cl)cc2)cc1 | inactive |
| CC(C)C(=O)NC(c1cccs1)c1cc([N+](=O)[O-])c2cccnc2c1O (stereo not drawn) | inactive |

| SMILES | GFP fluorescence, higher = induction |
| --- | --- |
| COc1ccc(N2C(=O)CC(Sc3ncn[nH]3)C2=O)c(OC)c1 (stereo not drawn) | inactive |
| CCc1ccc(/C=C/C(=O)c2cc(Br)ccc(=O)c2O)cc1 | inactive |
| O=C(OCC(=O)N1CCN(C(=O)c2ccco2)CC1)c1cc(-c2ccc(F)cc2)nc2ccccc12 | inactive |
| CC1=NOC(=O)/C1=C\c1ccc(-c2cc(Cl)ccc2Cl)o1 | inactive |
| COc1ccc(C(=O)/C=C2/C(=O)Nc3ccccc32)c(OC)c1 | inactive |
| COc1ccc(NC(=O)/C(C#N)=C/c2ncc([N+](=O)[O-])n2C)c(OC)c1 | inactive |
| Cc1ccc(C(CC(=O)O)NC(=O)c2ccc(S(=O)(=O)N3CC(C)OC(C)C3)cc2)cc1 (stereo not drawn) | inactive |
| CC(=O)[C@]1(O)Cc2c(O)c3c(c(O)c2[C@@H](O[C@H]2C[C@H](N)[C@H](O)[C@H](C)O2)C1)C(=O)c1ccccc1C3=O | inactive |
| O=C1Nc2ccccc2/C1=C\C(=O)c1ccccc1 | inactive |
| CC1=CC(=O)C(C(C)C)=C/C1=N/OS(=O)(=O)c1ccccc1 | inactive |
| COc1cc(/C=C2\C(=O)N(CCC#N)N=C2C)c(Br)cc1OC(C)C | inactive |
| CC1=C(C)/C(=N\OS(=O)(=O)c2ccc(C)cc2)C=CC1=O | inactive |
| C=CCOc1ccc(C(=O)/C=C2/C(=O)Nc3ccccc32)cc1 | inactive |
| O=C(Nc1nc(-c2ccccn2)cs1)C1COc2ccccc2O1 (stereo not drawn) | inactive |
| CCOC(=O)C1=C(O)c2ccccc2C(=O)/C1=C\c1ccc(C)cc1 | inactive |
| CCN(CC)c1ccc2cc(-c3nc4ccccc4[nH]3)c(=O)oc2c1 | inactive |
| CCC(=O)Oc1oc(-c2ccccc2)nc1C=Nc1ccccc1OC | inactive |
| COc1ccc(C(=O)NC(=S)NNC(=O)c2cnccn2)cc1 | inactive |
| CC[C@]1(c2ccccc2OC)ON(c2ccccc2C(F)(F)F)C1=O | inactive |
| Cc1cc(NC(c2ccc(Cl)cc2)c2ccc3cccnc3c2O)no1 (stereo not drawn) | inactive |
| CCOC(=O)COc1ccc2ccccc2c1/C=C/[N+](=O)[O-] | inactive |
| Cc1ccc(/C=C2/SC(=S)N(C3CCCCC3)C2=O)o1 | inactive |
| Cc1cccc(N2C(=O)C(Cl)=C(Nc3c(C)n(C)n(-c4ccccc4)c3=O)C2=O)c1C | inactive |

| SMILES | GFP fluorescence, higher = induction |
| --- | --- |
| Cc1ccnc(N2C(=O)c3cccc4c([N+](=O)[O-])ccc(c34)C2=O)c1 | inactive |
| COc1ccc(Cl)cc1C(Nc1cccnc1)c1ccc2cccnc2c1O (stereo not drawn) | inactive |
| O=C1c2cccc3c([N+](=O)[O-])ccc(c23)C(=O)N1c1ccccn1 | inactive |
| COc1ccc(N/N=C(\C#N)C(N)=O)cc1 | inactive |
| COc1ccccc1NC1=C(Cl)C(=O)N(c2ccccc2)C1=O | inactive |
| CCc1cccc2sc(N3CCN(C(=O)c4ccc([N+](=O)[O-])o4)CC3)nc12 | inactive |
| Cc1cccc(OCCN2CSC(=S)N(C)C2)c1 | inactive |
| O=[N+]([O-])c1cc(F)c2cccnc2c1O | inactive |
| O=C1ON=C(c2ccccc2)/C1=C\c1ccco1 | inactive |
| Cc1ccc(NC(=O)c2nc(S(=O)(=O)Cc3ccccc3)ncc2Cl)cc1 | inactive |
| O=C(Nc1nc2ccc(F)cc2s1)c1ccccn1 | inactive |
| O=C1C(=O)c2ccccc2-c2ccccc21 | inactive |
| C#CCOCCOCCOCCNc1nc(N2CCN(C(=O)CCCCCCCCCCNC(=O)[C@H](CCCCN)n3cc(CCCC(=O)O)nn3)CC2)nc(N2CCN(C(=O)CCCCCCCCCCNC(=O)[C@H](CCCN=C(N)N)n3cc(C[C@@H](C)CC)nn3)CC2)n1 | inactive |
| O=C1NC(=O)N(c2ccccc2)C(=O)/C1=C/c1ccc(Sc2ccccc2)o1 | inactive |
| CC(=O)Oc1ccc(N2C(=O)C3C4C=CC(O4)C3C2=O)cc1 (stereo not drawn) | inactive |
| Cc1ccccc1C(=O)NNC(=S)NC(=O)c1ccc(Cl)cc1Cl | inactive |
| Nc1nc(N)c2nc(CNc3ccc(C(=O)NC(CCC(=O)O)C(=O)O)cc3)cnc2n1 (stereo not drawn) | inactive |
| Oc1c(Br)cc(Br)cc1C=Nc1ccc2c(c1)OCO2 | inactive |
| O=C(c1ccccc1)c1ccccc1N1C(=O)C=CC1=O | inactive |
| CCN1/C(=C/c2ccc3cc(C)ccc3[n+]2CC)Sc2ccc3sccc3c21 | inactive |
| CCc1sc(C(=O)Nc2nc(-c3ccccn3)cs2)cc1C | inactive |
| CCOC(=O)CSC1=NC(=O)/C(=C\c2ccc(Cl)cc2)S1 | inactive |
| CCc1nc2ccccc2c(=O)n1NC(=O)c1c(O)c2ccccc2n(CC)c1=O | inactive |

| SMILES | GFP fluorescence, higher = induction |
| --- | --- |
| O=C(CSC1=NS(=O)(=O)c2ccccc21)Nc1ccccc1 | inactive |
| COc1ccc(C(c2c(C)[nH]n(C(N)=S)c2=O)C(C#N)C#N)cc1 (stereo not drawn) | inactive |
| CC(OC(=O)c1ccco1)C(=O)Nc1nc(-c2ccccc2)cs1 (stereo not drawn) | inactive |
| C=CCN1C(=O)/C(=C/c2cccs2)C(=O)NC1=S | inactive |
| Cc1c(NC2=C(Cl)C(=O)N(c3ccccc3Cl)C2=O)c(=O)n(-c2ccccc2)n1C | inactive |
| CCCCC1OC23CCCCC2C(C#N)(C(=N)O3)C1(C#N)C#N (stereo not drawn) | inactive |
| O=C(COc1ccc(F)cc1Cl)Nc1nc(-c2ccccn2)cs1 | inactive |
| COc1cccc2sc(Nc3nc(-c4ccccn4)cs3)nc12 | inactive |
| [O-][n+]1cccc2c(Br)cc(Br)c(O)c21 | inactive |
| COC(=O)CCS(=O)(=O)c1nc(-c2ccccc2)cc(C(F)(F)F)n1 | inactive |
| O=C1C=CC(=O)N1c1ccc(N2CCCCC2)cc1 | inactive |
| CCC(=O)Oc1oc(-c2ccccc2)nc1C=Nc1ccc(C)cc1 | inactive |
| Cc1c(C(=O)Nc2nc(-c3ccccn3)cs2)oc2ccccc12 | inactive |
| C#CCOCCOCCOCCNc1nc(N2CCN(C(=O)CCCCCCCCCCNC(=O)[C@@H](CCC(=O)O)n3cc(CCCCCN)nn3)CC2)nc(N2CCN(C(=O)CCCCCCCCCCNC(=O)[C@H](CCCCN)n3cc(C[C@@H](C)CC)nn3)CC2)n1 | inactive |
| O=C(/C=C/c1cccc(Cl)c1)c1nc2ccccc2[nH]1 | inactive |
| CCC(=O)Nc1ccc(NC(=O)c2cc3ccccc3o2)c(OC)c1 | inactive |
| Cc1ccccc1N=Nc1ccc(O)c2ncccc12 | inactive |
| O=C(/C=C/c1ccccn1)c1cc(Br)ccc1O | inactive |
| O=C(OCn1ncc(Br)c(Br)c1=O)c1ccc(F)cc1 | inactive |
| Cc1cc(C(=O)COC(=O)c2ccc[nH]c2=O)c(C)n1-c1ccccc1F | inactive |
| Cc1cccc(N=C2NC(=O)/C(=C/C=C/c3ccco3)S2)c1C | inactive |
| Cc1cc(=O)n2c3c(sc2n1)C(=O)N(Cc1ccccc1)C3=O | inactive |
| Cc1cc(C2CCCCC2)n(O)c(=O)c1 | inactive |

Same assay, conditions: S. cerevisiae CIT2-GFP strain, flow cytometry fluorescence, 3 h

| SMILES | EC50 [nM] |
| --- | --- |
| N/C(Cc1ccc(Cl)cc1Cl)=N\OC(=O)c1cccs1 | 1480 |

From PubChem BioAssay AID2744 (NMMLSC, 2010)
